Source: US11352396B2, “Antimicrobial peptides and methods of using same” (Zoetis Services LLC, priority 2017, dated 2022)
In brackets after ≈: the same amount, converted by molar mass. Residues, ends and D or L forms follow the SMILES beside them.

What was measured:
[1] = test system: MSSP (Methicillin-Susceptible Staphylococcus pseudintermedius); assay: MIC against selected strains of MSSP; assay type: cell-based; set-up: key to MIC MSSP 84658 / MIC MSSP 86000 / MIC MSSP 71990 / MIC MSSP 72036 / MIC MSSP 78032: MIC in μM; key to MIC MSSP 86001 / MIC MSSP 72191 / MIC MSSP 76986 / MIC MSSP 77378: MIC in μM (first well with no visible growth); MIC MSSP 49051 / MIC MSSP 81923 / MIC MSSP 84250 / Effect on MSSP 86000 / Effect on MSSP 72036 / Effect on MSSP 78032: unit not given beside the values; details: for MIC MSSP 49051: strain 49051, Table 3; for MIC MSSP 71990: strain 71990, Table 3; for MIC MSSP 72036: strain 72036, Table 3; for MIC MSSP 72191: strain 72191, Table 3; for MIC MSSP 76986: strain 76986, Table 3; for MIC MSSP 77378: strain 77378, Table 3; for MIC MSSP 78032: strain 78032, Table 3; for MIC MSSP 81923: strain 81923, Table 3; for MIC MSSP 84250: strain 84250, Table 3; for MIC MSSP 84658: strain 84658, Table 3; for MIC MSSP 86000: strain 86000, Table 3; for MIC MSSP 86001: strain 86001, Table 3
Method: (§1) Peptides according to SEQ ID NOs as listed in Table 1 were prepared by a commercial manufacturer (CS Bio, Menlo Park, Calif.) using solid phase synthesis. Antimicrobial activity was assessed by determining the Minimal Inhibitory Concentration (MIC) against S. aureus and E. coli. Briefly, Microbroth MICs were performed using CLSI methodology (VET01-S2). For S. aureus and E. coli ATCC strains, TSA with 5% lysed horse blood agar was used for overnight culturing at 37° C. ambient air. A 0.5 mM stock for each peptide was made with cell culture water, 0.01% acetic acid and serially diluted and spotted (10 μL) in a 96-well plate for in assay dose titration concentration of 50 μM to 0.05 μM. 0.5 McFarland Standard of each strain was diluted 1:250 in Mueller-Hinton Broth (MHB). 90 μL of culture suspension was then added upon drug in the 96-well plate for overnight incubation for 18-20 hours. The MIC was determined visually at the first well of no visible growth at the corresponding concentration.
(§2) Antimicrobial activity of the peptides listed in Table 2 against different strains of MSSP (Methicillin-Susceptible Staphylococcus pseudintermedius) and MRSP (Methicillin-Resistant Staphylococcus pseudintermedius) was further assessed. The results are in Tables 3 and 4, respectively.

[2] = test system: MRSP (Methicillin-Resistant Staphylococcus pseudintermedius); assay: MIC against selected strains of MRSP; assay type: cell-based; set-up: key to MIC MRSP 88493 / MIC MRSP 72035 / MIC MRSP 81926: MIC in μM; key to MIC MRSP 71994 / MIC MRSP 79882 / MIC MRSP 80729 / MIC MRSP 86002: MIC in μM (first well with no visible growth); key to MIC MRSP 72192 / MIC MRSP 76923 / MR 71994 / Mr 88493 / MR 72035 / MR 72192 / MR 76923 / MR 79882 / MR 80279 / MR 81926 / MR 86002 / MR 87665: MIC in μM (visual, first well with no growth); MIC MRSP 87655: unit not given beside the values; details: for MIC MRSP 71994: strain 71994, Table 4; for MIC MRSP 72035: strain 72035, Table 4; for MIC MRSP 72192: strain 72192, Table 4; for MIC MRSP 76923: strain 76923, Table 4; for MIC MRSP 79882: strain 79882, Table 4; for MIC MRSP 80729: strain 80729, Table 4; for MIC MRSP 81926: strain 81926, Table 4; for MIC MRSP 86002: strain 86002, Table 4; for MIC MRSP 87655: strain 87655, Table 4; for MIC MRSP 88493: strain 88493, Table 4
Method: as §1, §2

[3] = test system: Canine-derived epithelial keratinocyte (CPEK) cells; assay type: cell-based
Method: Safety of the peptides listed in table 2 was determining by measuring cell viability. Canine-derived epithelial keratinocyte (CPEK) cells were propagated to determine cell viability in the presence of peptides. Cells were grown from a frozen stock in CnT-09-5 (with supplements) pre-warmed media in a T75 flask and incubated overnight at 37° C., 5% CO2. Cells were washed with phosphate buffer and replenished with pre-warmed CnT-05-9 media and repeated for several days until cells reached a density of 6.6×10^4 cells/mL. Cells were then transferred to a 384 well plate, allowed to settle and dosed with peptides and melittin control peptide (50 μM to 0.05 μM) and incubated overnight at 37° C., 5% CO2. 0.1% TritonX100 as (HPE) and phosphate buffer alone as (ZPE) were added to the plates to calculate percent effect once the assay was terminated with 10 μL CELLTITER-GLO® assay reagents for a luminescent readout.

cRBC = assay type: cell-based, canine
Method: SEQ ID NO: 1 was selected for further research. Toxicity of SEQ ID NO: 1 to eukaryotic blood cells was compared to that of tachyplesin (SEQ ID NO: 13). A standard, well referenced red blood cell hemolysis assay was employed against multiple species to test the lysis potential of the peptides. Red blood cells (RBCs) were prepared and isolated by several centrifuge and wash steps to remove the plasma fraction. A dose titration (50 μM to 0.05 μM) of test peptides and control peptide melittin were spotted from 50 mM stocks in a 384 well plate. Prepared RBCs were incubated with peptide for one hour at 37° C. Percent hemolysis was measured by optical density at 405 nm and utilizing 1% TritonX100 as hundred percent effect (HPE) and phosphate buffer alone as zero percent effect (ZPE).

S. aureus ATCC 29213 = assay type: cell-based; details: ATCC 29213
Method: as §1

E. coli ATCC 25922 = assay type: cell-based; details: ATCC 25922
Method: as §1

| Compound | MIC MSSP 49051 [1] | MIC MSSP 71990 [1] | MIC MSSP 72036 [1] | MIC MSSP 72191 [1] | MIC MSSP 76986 [1] | MIC MSSP 77378 [1] | MIC MSSP 78032 [1] | MIC MSSP 81923 [1] | MIC MSSP 84250 [1] | MIC MSSP 84658 [1] | MIC MSSP 86000 [1] | MIC MSSP 86001 [1] | MIC MRSP 71994 [2] | MIC MRSP 72035 [2] | MIC MRSP 72192 [2] | MIC MRSP 76923 [2] | MIC MRSP 79882 [2] | MIC MRSP 80729 [2] | MIC MRSP 81926 [2] | MIC MRSP 86002 [2] | further results |
| --- | --- | --- | --- | --- | --- | --- | --- | --- | --- | --- | --- | --- | --- | --- | --- | --- | --- | --- | --- | --- | --- |
| 8 (KWCFRVCYRGACYRRCRD; Artificial Antimicrobial peptide) [compound 8] | 1.6 | 1.6 | 1.6 | 1.6 | 1.6 | 0.8 | 1.6 | 3.1 | 1.6 | 1.6 | 1.6 | 1.6 | 1.6 | 1.6 | 1.6 | 1.6 | 1.6 | 1.6 | 1.6 | 1.6 | MIC MRSP 87655 [2]: 1.6; MIC MRSP 88493 [2]: 1.6; CPEK (50 μM) [3]: 24.6; cRBC (50 μM) (cRBC): 30.2 |
| 9 (KWCFRVCYRGFCYRRCRD; Artificial Antimicrobial peptide) [compound 9] | 1.6 | 1.6 | 0.8 | 1.6 | 0.8 | 0.4 | 0.8 | 1.6 | 1.6 | 1.6 | 0.8 | 0.8 | 1.6 | 1.6 | 1.6 | 1.6 | 0.8 | 1.6 | 1.6 | 1.6 | MIC MRSP 87655 [2]: 1.6; MIC MRSP 88493 [2]: 1.6; CPEK (50 μM) [3]: 52.3; cRBC (50 μM) (cRBC): 101.3 |
| 10 (KWCFRVCYRGICYHRCRD; Artificial Antimicrobial peptide) [compound 10] | 1.6 | 1.6 | 1.6 | 1.6 | 1.6 | 0.8 | 1.6 | 1.6 | 1.6 | 1.6 | 1.6 | 1.6 | 1.6 | 1.6 | 1.6 | 1.6 | 0.8 | 1.6 | 1.6 | 1.6 | MIC MRSP 87655 [2]: 1.6; MIC MRSP 88493 [2]: 1.6; CPEK (50 μM) [3]: 31.5; cRBC (50 μM) (cRBC): 101.1 |
| 11 (KWCFRVCYRGICYRRCND; Artificial Antimicrobial peptide) [compound 11] | 0.8 | 1.6 | 0.8 | 0.8 | 0.8 | 0.4 | 0.8 | 1.6 | 0.8 | 0.8 | 0.4 | 0.8 | 1.6 | 1.6 | 0.8 | 0.8 | 0.8 | 0.8 | 0.8 | 0.8 | MIC MRSP 87655 [2]: 0.8; MIC MRSP 88493 [2]: 1.6; CPEK (50 μM) [3]: 22.0; cRBC (50 μM) (cRBC): 57.8 |
| 96 (KWCFRVCYGRICYRRCRD; Artificial Antimicrobial peptide) [compound 96] | 1.6 | 1.6 | 1.6 | 1.6 | 1.6 | 0.8 | 1.6 | 1.6 | 1.6 | 1.6 | 1.6 | 1.6 | 1.6 | 1.6 | 1.6 | 1.6 | 1.6 | 1.6 | 1.6 | 1.6 | MIC MRSP 87655 [2]: 1.6; MIC MRSP 88493 [2]: 1.6; CPEK (50 μM) [3]: 51.9; cRBC (50 μM) (cRBC): 101.4 |
| CC(C)[C@H](NC(=O)[C@H](CS)NC(=O)[C@H](Cc1ccccc1)NC(=O)CNC(=O)[C@H](CC(N)=O)NC(=O)[C@H](CCCCN)NC(=O)[C@H](CS)NC(=O)[C@H](CCCCN)NC(=O)[C@H](CS)NC(=O)CNC(=O)[C@H](CCCCN)NC(=O)[C@@H](N)CCCNC(=N)N)C(=O)N[C@@H](CS)C(=O)N[C@@H](CCCNC(=N)N)C(N)=O [SEQ ID NO: 65, RKGCKCKNGFCVCR-NH2] (H-RKGCKCKNGFCVCR-NH2; N-terminus assumed) |  |  |  |  |  |  |  |  |  |  |  |  |  |  |  |  |  |  |  |  | MIC S. aureus ATCC 29213 (S. aureus ATCC 29213): 50 µM (≈ 80.1 µg/mL); MIC E. coli ATCC 25922 (E. coli ATCC 25922): 6.25 µM (≈ 10 µg/mL) |
| CC(C)C[C@H](NC(=O)[C@H](CCCNC(=N)N)NC(=O)CNC(=O)CNC(=O)[C@@H](N)CCCNC(=N)N)C(=O)N[C@@H](CS)C(=O)N[C@@H](Cc1ccc(O)cc1)C(=O)N[C@@H](CS)C(=O)N[C@@H](CCCNC(=N)N)C(=O)N[C@@H](CCCNC(=N)N)C(=O)N[C@@H](CCCNC(=N)N)C(=O)N[C@@H](Cc1ccccc1)C(=O)N[C@@H](CS)C(=O)N[C@H](C(=O)N[C@@H](CS)C(=O)N[C@H](C(=O)NCC(=O)N[C@@H](CCCNC(=N)N)C(=O)O)C(C)C)C(C)C [SEQ ID NO: 92, RGGRLCYCRRRFCVCVGR] (H-RGGRLCYCRRRFCVCVGR-OH; N-terminus and C-terminus assumed) |  |  |  |  |  |  |  |  |  |  |  |  |  |  |  |  |  |  |  |  | MIC S. aureus ATCC 29213 (S. aureus ATCC 29213): 3.1 µM (≈ 6.7 µg/mL); MIC E. coli ATCC 25922 (E. coli ATCC 25922): 3.1 µM (≈ 6.7 µg/mL) |
